Laboratory results taken from the supplement of paper PMC10307832.

Tests used:
Test in all cases: relative viability (nuclei count vs DMSO), 5 days (fraction); higher = more cells survive
NCI-H1395 = tested on: NCI-H1395
Summary of the method: (§1)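 Lung cancer cell lines were seeded in 1536-well plates and dosed by pin tool the next day, with either a single drug or a fixed anchor-drug dose combined with five library-drug doses (not always all listed) spaced in √10 steps. Five days later, one step fixed the cells and stained their nuclei (final 0.05% Triton X-100, 1% formaldehyde, 1 ug/ml Hoechst), and nuclei were counted on 4× images. Relative viability is the nuclei count in treated wells divided by the count in vehicle wells, and each value is the median of duplicate plates.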

NCI-H2009 = tested on: NCI-H2009
Summary of the method: as §1

NCI-H2228 = tested on: NCI-H2228
Summary of the method: as §1

EPLC-272H = tested on: EPLC-272H
Summary of the method: as §1

NCI-H661 = tested on: NCI-H661
Summary of the method: as §1

NCI-H23 = tested on: NCI-H23
Summary of the method: as §1

BEN = tested on: BEN
Summary of the method: as §1

NCI-H322M = tested on: NCI-H322M
Summary of the method: as §1

NCI-H650 = tested on: NCI-H650
Summary of the method: as §1

HCC-78 = tested on: HCC-78
Summary of the method: as §1

NCI-H2342 = tested on: NCI-H2342
Summary of the method: as §1

HCC-15 = tested on: HCC-15
Summary of the method: as §1

NCI-H460 = tested on: NCI-H460
Summary of the method: as §1

NCI-H2126 = tested on: NCI-H2126
Summary of the method: as §1

PC-14 = tested on: PC-14
Summary of the method: as §1

LCLC-97TM1 = tested on: LCLC-97TM1
Summary of the method: as §1

NCI-H2405 = tested on: NCI-H2405
Summary of the method: as §1

NCI-H838 = tested on: NCI-H838
Summary of the method: as §1

LU99A = tested on: LU99A
Summary of the method: as §1

NCI-H2085 = tested on: NCI-H2085
Summary of the method: as §1

201T = tested on: 201T
Summary of the method: as §1

NCI-H1355 = tested on: NCI-H1355
Summary of the method: as §1

NCI-H647 = tested on: NCI-H647
Summary of the method: as §1

Cc1cn(-c2cc(NC(=O)c3ccc(C)c(Nc4nccc(-c5cccnc5)n4)c3)cc(C(F)(F)F)c2)cn1 [Nilotinib] + N=C(N)NC(=N)NCCc1ccccc1 [Phenformin] (partner 250 µM)
relative viability (NCI-H1395; first compound 0.001 µM): 0.453
relative viability (NCI-H1395; first compound 0.003162 µM): 0.403
relative viability (NCI-H1395; first compound 0.01 µM): 0.49
relative viability (NCI-H1395; first compound 0.03162 µM): 0.43
relative viability (NCI-H1395; first compound 0.1 µM): 0.415
relative viability (NCI-H2009; first compound 0.001 µM): 0.417
relative viability (NCI-H2009; first compound 0.003162 µM): 0.464
relative viability (NCI-H2009; first compound 0.01 µM): 0.463
relative viability (NCI-H2009; first compound 0.03162 µM): 0.387
relative viability (NCI-H2009; first compound 0.1 µM): 0.338
relative viability (NCI-H2228; first compound 0.003162 µM): 0.388
relative viability (NCI-H2228; first compound 0.01 µM): 0.383
relative viability (NCI-H2228; first compound 0.03162 µM): 0.259
relative viability (NCI-H2228; first compound 0.1 µM): 0.278
relative viability (EPLC-272H; first compound 0.001 µM): 0.305
relative viability (EPLC-272H; first compound 0.003162 µM): 0.283
relative viability (EPLC-272H; first compound 0.01 µM): 0.262
relative viability (EPLC-272H; first compound 0.03162 µM): 0.234
relative viability (EPLC-272H; first compound 0.1 µM): 0.298
relative viability (NCI-H661; first compound 0.001 µM): 0.307
relative viability (NCI-H661; first compound 0.003162 µM): 0.268
relative viability (NCI-H661; first compound 0.03162 µM): 0.279
relative viability (NCI-H661; first compound 0.1 µM): 0.288
relative viability (NCI-H23; first compound 0.001 µM): 0.706
relative viability (NCI-H23; first compound 0.003162 µM): 0.58
relative viability (NCI-H23; first compound 0.01 µM): 0.891
relative viability (NCI-H23; first compound 0.03162 µM): 0.624
relative viability (NCI-H23; first compound 0.1 µM): 0.594
relative viability (BEN; first compound 0.001 µM): 0.264
relative viability (BEN; first compound 0.003162 µM): 0.292
relative viability (BEN; first compound 0.01 µM): 0.237
relative viability (BEN; first compound 0.03162 µM): 0.259
relative viability (BEN; first compound 0.1 µM): 0.289
relative viability (NCI-H322M; first compound 0.001 µM): 0.781
relative viability (NCI-H322M; first compound 0.003162 µM): 0.702
relative viability (NCI-H322M; first compound 0.01 µM): 0.87
relative viability (NCI-H322M; first compound 0.03162 µM): 0.741
relative viability (NCI-H322M; first compound 0.1 µM): 0.833
relative viability (NCI-H650; first compound 0.001 µM): 0.444
relative viability (NCI-H650; first compound 0.003162 µM): 0.428
relative viability (NCI-H650; first compound 0.01 µM): 0.447
relative viability (NCI-H650; first compound 0.03162 µM): 0.38
relative viability (NCI-H650; first compound 0.1 µM): 0.397
relative viability (HCC-78; first compound 0.001 µM): 0.786
relative viability (HCC-78; first compound 0.003162 µM): 0.643
relative viability (HCC-78; first compound 0.01 µM): 0.706
relative viability (HCC-78; first compound 0.03162 µM): 0.637
relative viability (HCC-78; first compound 0.1 µM): 0.636
relative viability (NCI-H2342; first compound 0.001 µM): 0.534
relative viability (NCI-H2342; first compound 0.003162 µM): 0.614
relative viability (NCI-H2342; first compound 0.01 µM): 0.556
relative viability (NCI-H2342; first compound 0.03162 µM): 0.523
relative viability (NCI-H2342; first compound 0.1 µM): 0.504
relative viability (HCC-15; first compound 0.001 µM): 0.436
relative viability (HCC-15; first compound 0.003162 µM): 0.598
relative viability (HCC-15; first compound 0.01 µM): 0.508
relative viability (HCC-15; first compound 0.03162 µM): 0.331
relative viability (HCC-15; first compound 0.1 µM): 0.404
relative viability (NCI-H460; first compound 0.001 µM): 0.298
relative viability (NCI-H460; first compound 0.003162 µM): 0.805
relative viability (NCI-H460; first compound 0.01 µM): 1.18
relative viability (NCI-H460; first compound 0.03162 µM): 0.338
relative viability (NCI-H460; first compound 0.1 µM): 0.106
relative viability (NCI-H2126; first compound 0.001 µM): 0.546
relative viability (NCI-H2126; first compound 0.003162 µM): 0.535
relative viability (NCI-H2126; first compound 0.01 µM): 0.538
relative viability (NCI-H2126; first compound 0.03162 µM): 0.534
relative viability (NCI-H2126; first compound 0.1 µM): 0.562
relative viability (PC-14; first compound 0.001 µM): 0.573
relative viability (PC-14; first compound 0.003162 µM): 0.538
relative viability (PC-14; first compound 0.01 µM): 0.546
relative viability (PC-14; first compound 0.03162 µM): 0.459
relative viability (PC-14; first compound 0.1 µM): 0.542
relative viability (LCLC-97TM1; first compound 0.001 µM): 0.393
relative viability (LCLC-97TM1; first compound 0.003162 µM): 0.468
relative viability (LCLC-97TM1; first compound 0.01 µM): 0.467
relative viability (LCLC-97TM1; first compound 0.03162 µM): 0.426
relative viability (LCLC-97TM1; first compound 0.1 µM): 0.453
relative viability (NCI-H2405; first compound 0.001 µM): 0.381
relative viability (NCI-H2405; first compound 0.003162 µM): 0.357
relative viability (NCI-H2405; first compound 0.01 µM): 0.397
relative viability (NCI-H2405; first compound 0.03162 µM): 0.356
relative viability (NCI-H2405; first compound 0.1 µM): 0.346
relative viability (NCI-H838; first compound 0.001 µM): 0.599
relative viability (NCI-H838; first compound 0.003162 µM): 0.613
relative viability (NCI-H838; first compound 0.01 µM): 0.695
relative viability (NCI-H838; first compound 0.03162 µM): 0.492
relative viability (NCI-H838; first compound 0.1 µM): 0.51
relative viability (LU99A; first compound 0.001 µM): 0.697
relative viability (LU99A; first compound 0.003162 µM): 0.907
relative viability (LU99A; first compound 0.01 µM): 0.798
relative viability (LU99A; first compound 0.03162 µM): 0.611
relative viability (LU99A; first compound 0.1 µM): 0.483
relative viability (NCI-H2085; first compound 0.001 µM): 0.76
relative viability (NCI-H2085; first compound 0.003162 µM): 0.749
relative viability (NCI-H2085; first compound 0.01 µM): 0.769
relative viability (NCI-H2085; first compound 0.03162 µM): 0.493
relative viability (NCI-H2085; first compound 0.1 µM): 0.581
relative viability (201T; first compound 0.003162 µM): 0.48
relative viability (201T; first compound 0.01 µM): 0.454
relative viability (201T; first compound 0.03162 µM): 0.477
relative viability (201T; first compound 0.1 µM): 0.491
relative viability (NCI-H1355; first compound 0.001 µM): 0.451
relative viability (NCI-H1355; first compound 0.003162 µM): 0.426
relative viability (NCI-H1355; first compound 0.01 µM): 0.401
relative viability (NCI-H1355; first compound 0.03162 µM): 0.361
relative viability (NCI-H1355; first compound 0.1 µM): 0.424
relative viability (NCI-H647; first compound 0.001 µM): 0.627
relative viability (NCI-H647; first compound 0.003162 µM): 0.628
relative viability (NCI-H647; first compound 0.01 µM): 0.594
relative viability (NCI-H647; first compound 0.03162 µM): 0.449
relative viability (NCI-H647; first compound 0.1 µM): 0.336
